Format in all cases: ADME, organism-based
Data set [1] can be described thus: Cmax in rat after 4 hrs. Conditions: in vivo.
The nature of data set [2]: AUC (0 to 6 hrs) in rat. Conditions: plasma. Also on record: time < 6 hr.
Data set [3] can be described thus: Drug level in rat after 6 hrs. The conditions noted are these: in vivo, read-out: Drug uptake.

In general, Cmax refers to the peak of the concentration-time curve. As a reminder, the AUC(0-t) is the area under the concentration-time curve up to a stated or last time point. In the case of `CC1(C)CCC(N2CCC3(CC2)C(=O)NCN3c2ccccc2)c2cc(Cl)c(Cl)cc21` (stereo not drawn), in data set [1], the Cmax was found to be 518 nM. The same compound gave an AUC(0-t) at 6 h in data set [2] of 2.11 µM·h. The concentration at 6 h in data set [3] came to 467 nM.

These data come from ChEMBL document CHEMBL1139143, “Synthesis and structure-activity relationships of N-substituted spiropiperidines as nociceptin receptor ligands” (Bioorg Med Chem Lett, 2007).
